Assays:
[1] = Blood clearance and biodistribution after intravenous administration in wild type mice; format: in vivo; settings: 1 nmol intravenous, 30 and 60 minutes, compared to probe 1
Experimental: (§1) Fluorescent probes (one nmol in 100 μL saline) were administered through a jugular vein catheter under inhaled isoflurane anesthesia. Blood samples were collected at various time points after probe administration to monitor blood clearance. Animals were sacrificed at the indicated time points and various organs were harvested. Near-infrared fluorescence reflectance imaging was conducted using an IVIS Spectrum system (Caliper Life Science, Hopkinton, MA) with appropriate excitation (Ex) and emission (Em) filter sets (Ex/Em = 675/720 nm for probe 1 and Ex/Em = 745/800 nm for probes 3 and 4). Fluorescence from 10 μL of blood was converted to % injected dose per gram (% ID/g) using a standard curve derived from serial dilutions of each probe in 10 μL of mouse blood. Tissue fluorescence was quantified as mean efficiency per pixel and was presented as an arbitrary unit (AU) relative to the signal from each probe in 10 μL of mouse blood.

Stability in PBS = format: physicochemical
Experimental: Probes 1, 2, 3 and control probe 4 were synthesized from phosphinic building blocks whose synthesis was previously reported. Briefly, the elongation of the peptide’s sequence as well as the incorporation of the phosphinic building blocks were performed on solid support using a standard Fmoc strategy. After cleavage from the support, pseudo peptide intermediates were purified and subsequently engaged in a coupling reaction with the appropriate dye-NHS ester. The identity and purity of each optical probe were confirmed by analytical HPLC, mass spectrometry analysis and NMR (for detailed protocols and analytical data see supplemental information). The stability of each probe was confirmed in phosphate buffered saline (PBS). Moreover, the stability of probe 3 and its control, probe 4 were evaluated by HPLC in mouse blood over a period of 4 hours at 37 °C.

hMMP-12 = assay: MMP inhibition assay (Ki); format: biochemical, human
Experimental: (§2) Human MMP-8, -9, -12 and -13 were produced in the laboratory. Other MMPs were purchased from R&D Systems (Minneapolis, MN). MMP inhibition assays were carried out as previously described. Pro-MMPs were pre-activated by p-aminophenylmercuric acetate following the method described by R&D Systems. Titration experiments were carried out to determine active enzyme concentration for each MMP prior to the assay. For each probe, the percentage of inhibition was determined from five different concentrations in triplicates, chosen to reach a range of 20–80% inhibition. Ki values were determined using the method proposed by Horovitz and Leviski[45].

MMP-12 active form = MMP-12 active form (Mus musculus, UniProt P34960); assay: MMP-12 imaging of carotid aneurysm; format: in vivo; parameters: from tissue; host or cells: CaCl2-induced aneurysmal left carotid artery of apoE-deficient mice (in vivo imaging and cryostat sections); settings: high fat-fed apoE-/- mice, tissues harvested at 60 minutes after intravenous administration
Experimental: Carotid aneurysm model: Arterial aneurysm was induced over a 4-week period by exposing the left common carotid artery of apolipoprotein E–deficient (apoE^−/−, n = 7) mice (Jackson Laboratory) to calcium chloride, as described. The opposite carotid artery was exposed to normal saline and served as control for imaging studies. Tissues from a previous study (n = 3)[18] supplemented histologic evaluations.
as §1

ADAMTS-5 = target: T1, ADAMTS-5 (Homo sapiens, UniProt Q9UNA0); assay: Metalloprotease inhibition assay (Ki); format: biochemical
T1 sequence (Q9UNA0 262-930): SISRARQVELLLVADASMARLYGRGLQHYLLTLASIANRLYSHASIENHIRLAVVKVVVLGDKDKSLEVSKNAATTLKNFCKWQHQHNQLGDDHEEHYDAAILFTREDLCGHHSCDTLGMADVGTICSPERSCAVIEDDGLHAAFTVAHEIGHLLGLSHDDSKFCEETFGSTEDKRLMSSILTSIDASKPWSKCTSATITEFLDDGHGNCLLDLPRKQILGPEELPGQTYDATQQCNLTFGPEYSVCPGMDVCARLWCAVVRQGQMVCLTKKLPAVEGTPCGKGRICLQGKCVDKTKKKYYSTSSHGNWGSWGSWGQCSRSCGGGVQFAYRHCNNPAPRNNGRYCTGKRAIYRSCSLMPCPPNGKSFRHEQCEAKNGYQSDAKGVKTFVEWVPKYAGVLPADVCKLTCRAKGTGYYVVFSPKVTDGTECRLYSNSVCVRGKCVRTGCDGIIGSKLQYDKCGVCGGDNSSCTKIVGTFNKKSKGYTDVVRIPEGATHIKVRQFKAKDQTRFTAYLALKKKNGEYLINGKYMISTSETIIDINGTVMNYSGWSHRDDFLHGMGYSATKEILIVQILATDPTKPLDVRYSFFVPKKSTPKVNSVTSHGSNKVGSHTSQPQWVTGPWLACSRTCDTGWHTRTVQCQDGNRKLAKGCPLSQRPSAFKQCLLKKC

TACE = TACE (Homo sapiens, UniProt P78536); assay: Metalloprotease inhibition assay (Ki); format: biochemical
human MMPs = assay: Affinity and selectivity profile toward panel of human MMPs; format: biochemical
Experimental: as §2

Sequence of TACE (P78536 215-824): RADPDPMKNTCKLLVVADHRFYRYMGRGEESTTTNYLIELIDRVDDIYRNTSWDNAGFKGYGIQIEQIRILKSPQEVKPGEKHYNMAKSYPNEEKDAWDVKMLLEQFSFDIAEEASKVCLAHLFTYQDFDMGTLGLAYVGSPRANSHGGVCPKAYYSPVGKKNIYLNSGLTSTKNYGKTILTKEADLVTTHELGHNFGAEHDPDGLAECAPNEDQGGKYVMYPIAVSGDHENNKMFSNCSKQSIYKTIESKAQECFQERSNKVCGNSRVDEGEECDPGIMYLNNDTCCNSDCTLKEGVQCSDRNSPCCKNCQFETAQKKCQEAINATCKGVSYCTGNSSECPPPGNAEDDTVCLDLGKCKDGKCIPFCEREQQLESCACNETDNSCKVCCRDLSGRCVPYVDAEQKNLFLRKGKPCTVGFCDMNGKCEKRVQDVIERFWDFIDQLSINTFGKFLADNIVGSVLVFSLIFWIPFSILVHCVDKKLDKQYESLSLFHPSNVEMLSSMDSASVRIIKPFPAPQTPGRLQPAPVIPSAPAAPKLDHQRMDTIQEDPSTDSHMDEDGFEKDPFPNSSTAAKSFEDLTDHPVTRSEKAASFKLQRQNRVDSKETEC
Sequence of MMP-12 active form (P34960 110-473): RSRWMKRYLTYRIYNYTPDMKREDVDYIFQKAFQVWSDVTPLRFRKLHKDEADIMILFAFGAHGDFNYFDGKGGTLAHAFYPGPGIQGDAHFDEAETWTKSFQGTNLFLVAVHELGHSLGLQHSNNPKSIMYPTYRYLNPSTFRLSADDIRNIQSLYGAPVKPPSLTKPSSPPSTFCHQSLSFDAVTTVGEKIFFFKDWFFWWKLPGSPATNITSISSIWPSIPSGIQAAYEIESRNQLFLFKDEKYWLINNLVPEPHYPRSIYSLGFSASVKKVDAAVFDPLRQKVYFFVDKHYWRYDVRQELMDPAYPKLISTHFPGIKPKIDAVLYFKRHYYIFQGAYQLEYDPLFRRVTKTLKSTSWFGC

Row | Compound | residual blood level [1] | stability in PBS (Stability in PBS) | Ki (hMMP-12) [µM] | difference in potency towards MMP-12, factor relative to probe 1 (hMMP-12; relative to probe 1) | fluorescence signal in aneurysmal left carotid artery (MMP-12 active form) | Ki (ADAMTS-5) [µM] | Ki (TACE) [µM] | affinity for human MMPs (human MMPs)
1 | CC1(C)C(/C=C/C2=C(Oc3ccc(CCC(=O)NCCCOCCOCCOCCCNC(=O)[C@H](CCC(=O)[O-])NC(=O)[C@H](CCC(=O)O)NC(=O)[C@H](Cc4cc(-c5ccc(-c6cccc(Cl)c6)cc5)no4)CP(=O)(O)c4ccc(Br)cc4)cc3)C(=C/C=C3/N(CCC[N+](C)(C)C)c4ccc(S(=O)(=O)[O-])cc4C3(C)C)/CCC2)=[N+](CCC[N+](C)(C)C)c2ccc(S(=O)(=O)[O-])cc21 [probe 3] | significantly lower residual blood level | fully stable | 0.0034 ± 0.0003 | 4 | significantly higher than the signal in the control, contralateral artery | > 10 | 4.61 ± 0.653 | –
2 | CC1(C)C(=CC=C2CCCC(C=CC3=[N+](CCC[N+](C)(C)C)c4ccc(S(=O)(=O)[O-])cc4C3(C)C)=C2Oc2ccc(CCC(=O)NCCCOCCOCCOCCCNC(=O)C(CCC(=O)[O-])NC(=O)C(CCC(=O)O)NC(=O)C(Cc3cc(-c4cccc(Oc5ccccc5)c4)no3)CP(=O)(O)c3ccc(Br)cc3)cc2)N(CCC[N+](C)(C)C)c2ccc(S(=O)(=O)[O-])cc21 (stereo not drawn) [probe 4] | – | – | 4.04 ± 0.67 | – | significantly lower signal | > 10 | > 25 | no affinity

Source: paper PMC5137160, “Optical imaging of MMP-12 active form in inflammation and aneurysm” (Scientific Reports, 2016)
